Results from patent US20240269308A1, “PRODRUGS OF TOPOISOMERASE I INHIBITOR FOR ADC CONJUGATIONS AND METHODS OF USE THEREOF” (priority 2022, published 2024).
Read-outs that look alike come from different tables or passages of the source.

What was measured:
[1] = Mouse whole blood stability test; format: in vitro ADME; conditions: for % of test compound in whole blood (initial 1 uM as 100%): 37° C.
Description: In vitro stability of Linker-Prodrug in mouse whole blood Scheme 15. Metabolism of LP1 (M2980) in whole blood.
Stock solution of test compound was provided in 100% DMSO. The stock solution for each compound was diluted into 500 μM with mixture of 50% acetonitrile, then diluted into mouse blood to achieve a final concentration of 1.0 μM. 1.0 μM of test compound in duplicate was incubated in blood at 37° C. Aliquots of 50 uL sample was collected at 0, 15, 30, 60, 120, 240, 480 min, and 24 hours. Reactions were terminated at various time points (0, 15, 30, 60, 120, 240, 480 min, 24 hours) by adding 200 μL of ice-cold acetonitrile containing internal standard with 1% formic acid and then ultrasound for 30 seconds. Plate was centrifuged (4000 rpm, 15 min). 50 μL of supernatants were transferred into a daughter plate containing 200 μL of H2O in each well. The samples were mixed well and analyzed with UPLC-MS/MS.
A Waters liquid chromatographic system was used. Detection was performed on AP14000 Q-Trap and AP15500 mass spectrometer equipped with TurbolonSpray (ESI) Interface (Applied Biosystems, Concord, Ontario, Canada). Analyst 1.5 and 1.6.2 software packages (Applied Biosystems) were used to control the LC-MS/MS system, as well as for data acquisition and processing.
Chromatographic separation was achieved on the Wates BEH C18 column (50*2.1 mm ID, 1.7 μm). The column temperature was maintained at ambient temperature (25° C.). The flow rate was maintained at 0.6 mL/min and the following mobile phases were used: water (0.1% formic acid, v/v) (phase A) and acetonitrile (0.1% formic acid, v/v) (phase B).
Test compounds (1.0 μM) were incubated in blood at 37° C. in duplicate. Aliquots of 50 uL sample was collected at 0, 15, 30, 60, 120, 240, 480 min, and 24 hours. Reactions were terminated at various time points (0, 15, 30, 60, 120, 240, 480 min, 24 hours by adding 200 μL of ice-cold acetonitrile containing internal standard with 1% formic acid, then ultrasound for 30 seconds. The plate was centrifuged (4000 rpm, 15 min). 50 μL of supernatants were transferred into a daughter plate containing 200 μL of water in each well. Samples were mixed well and analyzed with UPLC-MS/MS.
The % was calculated based on initial 1 uM as 100% and the standard concentration curve.

NCI-N87 cells = experiment: anti-Her2 viability assay, NCI-N87 cells (target positive); format: cell-based; conditions: for IC50: Homo sapiens
Description: (§1) The anti-Her2 viability assay protocol is following.
(§2) 0.1% BSA was added to the Opti-MEM reduced serum media [Gibco, cat #31985-070]. This assay media was used for the dilution of ADC and free drug.
(§3) Cells were seeded in their growth media into 96 well plates (Thermo #136101) one day prior to adding ADCs: 1000/well SKBR3 cells in 80 uL media (target positive cells), 1000/well NCI-N87 cells in 80 uL media (target positive cells), 1000/well Calu-3 in 80 uL media (target positive cells), and 800/well NCI-H1975 cells in 80ul media (target negative cells).
(§4) Serial dilutions of free drug in 100% DMSO (1:4 10 pts starting from 100 uM) were prepared. Serially diluted payload was transferred into Opti-Mem with 0.1% BSA (10 uL into 990 uL media). Serial dilutions of ADCs/isotype controls at 1:4 in Opti-Mem with 0.1% BSA (starting from 5×1000 nM) were prepared. 20ul assay media diluted ADC/isotype conjugates as well as free drug were transferred to above cells. The plates were incubated at 37° C., 5% CO2 for 6 days. Plates were developed by adding 100ul CellTiter Glo 2.0. RT 5-10 min. Plates were read with Envision plate reader. Data was analyzed using Prism. Only inner 60 well are used for the assay. The edge wells were filled with media to prevent dry out.

JIMT-1 = experiment: in vitro cell killing activity, JIMT-1 cells (CellTiter Glo viability); format: cell-based; conditions: for IC50: Homo sapiens
Description: as §4

Calu-3 = experiment: anti-Her2 viability assay, Calu-3 cells (target positive); format: cell-based; conditions: for IC50: Homo sapiens
Description: as §1, §2, §3, §4

SK-BR-3 cells = experiment: SKBR3 cell-based anti-proliferation / viability assay (CellTiter-Glo); set-up: species or system human; conditions: for IC50 / EC50: Homo sapiens; for IC50: SK-BR-3, 144 h
Description: as §1, §2, §3, §4
The cell line used in the anti-proliferation assays was SK-BR-3, a human breast, adenocarcinoma (pleural effusion) cell line; The cells were grown in McCoy's 5a Medium+10% FBS. To run the assay, the cells (80 μl, 1000 cells) were added to each well in a 96-well plate and incubated for 24 hours at 37° C. with CO2. Next, the cells were treated with test compounds (20 μl) at various concentrations in appropriate cell culture medium (total volume, 0.1 mL). The control wells contain cells and the medium but lack the test compounds. The plates were incubated for 144 hours at 37° C. with CO2. CTG reagent was then added to the wells (100 μl). After the plates were shaken for 10 min and then incubated for 10 min at room temperature, paste the clear bottom with white back seal and record luminescence with Envision. The inhibition % was calculated according to the following equation: inhibition %=[1-(assay-blank)/(control-blank)]×100.

NCI-H1975 cells = experiment: anti-Her2 viability assay, NCI-H1975 cells (target negative); format: cell-based; conditions: for IC50: Homo sapiens
Description: as §1, §2, §3, §4

in vitro = conditions: human, plasma
[2] = Calu-3 target positive cells, 6 days
[3] = SKBR3 target positive cells, 6 days
[4] = NCI-H1975 target negative cells, 6 days

CC[C@@]1(O)C(=O)OCc2c1cc1n(c2=O)Cc2c-1nc1cc(F)c(C)c3c1c2[C@@H](NC(=O)CO)CC3 [Dxd, reference compound]
% of test compound in whole blood (initial 1 uM as 100%) ([1]; mouse blood, 0 hr): 100.0%
% of test compound in whole blood (initial 1 uM as 100%) ([1]; mouse blood, 0.25 hr): 95.9%
% of test compound in whole blood (initial 1 uM as 100%) ([1]; mouse blood, 0.5 hr): 103.6%
% of test compound in whole blood (initial 1 uM as 100%) ([1]; mouse blood, 1 hr): 111.9%
% of test compound in whole blood (initial 1 uM as 100%) ([1]; mouse blood, 2 hr): 97.6%
% of test compound in whole blood (initial 1 uM as 100%) ([1]; mouse blood, 4 hr): 94.8%
% of test compound in whole blood (initial 1 uM as 100%) ([1]; mouse blood, 8 hr): 94.2%
% of test compound in whole blood (initial 1 uM as 100%) ([1]; mouse blood, 24 hr): 94.2%
Mouse blood stability % Remaining at 24 h ([1]; mouse blood): 94.8%
half-life at 1 μM ([1]; mouse, blood, read-out: Mouse blood stability T1/2 (converted)): 62.6 h
IC50 (NCI-N87 cells; NCI-N87, 144 h, read-out: N87 IC50 (nM)): 2.59 nM
IC50 (JIMT-1; JIMT-1, read-out: JIMT-1 IC50 (nM)): 4.41 nM
JIMT-1 % Kill (JIMT-1; JIMT-1 cells): 94.5%
Calu-3 % Kill (Calu-3; [2]): 94.9%
IC50 (Calu-3; Calu-3, 144 h, read-out: Calu-3 IC50 (nM)): 1.3 nM
IC50 (SK-BR-3 cells; read-out: SKBR3 IC50 (nM)): 1.02 nM
EC50 (SK-BR-3 cells; SK-BR-3, read-out: SKBR3 EC50 (nM)): 1.63 nM
SKBR3 % Kill (SK-BR-3 cells; [3]): 97.0%
IC50 (NCI-H1975 cells; NCI-H1975, 144 h, read-out: H1975 IC50 (nM)): 3.45 nM
H1975 % Kill (NCI-H1975 cells; [4]): 99.3%

CC[C@@]1(O)C(=O)OCc2c1cc1n(c2=O)Cc2c-1nc1cc(F)c(C)c3c1c2[C@@H](NC(=O)COCNC(=O)CN)CC3 [P1, 2-Amino-N-[({[(10S,23S)-10-ethyl-18-fluoro-10-hydroxy-19-methyl-5,9-dioxo-8-oxa-4,15-diazahexacyclo[14.7.1.0^2,14.0^4,13.0^6,11.0^20,24]tetracosa-1,6(11),12,14,16,18,20(24)-heptaen-23-yl]carbamoyl}methoxy)methyl]acetamide]
half-life at 1 μM ([1]; mouse, blood): 0.63 h
Mouse blood stability % Remaining at 24 h ([1]; mouse, blood, 1 μM): 4.1%
IC50 (NCI-N87 cells; 144 h, NCI-N87 target positive cells, 6 days, read-out: N87 IC50): 9.25 nM
N87 % Kill (NCI-N87 cells; NCI-N87 target positive cells, 6 days): 98.0%
IC50 (JIMT-1; JIMT-1 cells, read-out: JIMT-1 IC50): 26.6 nM
JIMT-1 % Kill (JIMT-1; JIMT-1 cells): 89.8%
Calu-3 % Kill (Calu-3; [2]): 93.1%
IC50 (Calu-3; 144 h, Calu-3 target positive cells, 6 days, read-out: Calu-3 IC50): 6.78 nM
IC50 (SK-BR-3 cells; SKBR3 target positive cells, 6 days, CellTiter Glo, read-out: SKBR3 IC50): 5.81 nM
EC50 (SK-BR-3 cells; SK-BR-3, read-out: SKBR3 EC50): 9.52 nM
SKBR3 % Kill (SK-BR-3 cells; [3]): 96.0%
Human plasma stability % Remaining at 24 h: 72.4%
IC50 (NCI-H1975 cells; 144 h, NCI-H1975 target negative cells, 6 days, read-out: H1975 IC50): 23.9 nM
H1975 % Kill (NCI-H1975 cells; [4]): 96.4%
half-life (in vitro): 49.6 h

CC[C@@]1(O)C(=O)OCc2c1cc1n(c2=O)Cc2c-1nc1cc(F)c(C)c3c1c2[C@@H](NC(=O)COCNC(=O)[C@@H](N)CCCCN)CC3 [P5, (2S)-2,6-diamino-N-[({[(10S,23S)-10-ethyl-18-fluoro-10-hydroxy-19-methyl-5,9-dioxo-8-oxa-4,15-diazahexacyclo[14.7.1.0^2,14.0^4,13.0^6,11.0^20,24]tetracosa-1,6(11),12,14,16,18,20(24)-heptaen-23-yl]carbamoyl}methoxy)methyl]hexanamide]
half-life at 1 μM ([1]; mouse, blood): 0.4 h
Mouse blood stability % Remaining at 24 h ([1]; mouse, blood, 1 μM): 1.3%
EC50 (SK-BR-3 cells; SK-BR-3, read-out: SKBR3 EC50): 4.51 nM
Human plasma stability % Remaining at 24 h: 69.7%
half-life (in vitro): 49.4 h

CC[C@@]1(O)C(=O)OCc2c1cc1n(c2=O)Cc2c-1nc1cc(F)c(C)c3c1c2[C@@H](NC(=O)COCNC(=O)[C@@H](N)CCCCN=[N+]=[N-])CC3 [P6, (2S)-2-amino-6-azido-N-[({[(10S,23S)-10-ethyl-18-fluoro-10-hydroxy-19-methyl-5,9-dioxo-8-oxa-4,15-diazahexacyclo[14.7.1.0^2,14.0^4,13.0^6,11.0^20,24]tetracosa-1,6(11),12,14,16,18,20(24)-heptaen-23-yl]carbamoyl}methoxy)methyl]hexanamide]
half-life at 1 μM ([1]; mouse, blood): 0.2 h
Mouse blood stability % Remaining at 24 h ([1]; mouse, blood, 1 μM): 3.3%
EC50 (SK-BR-3 cells; SK-BR-3, read-out: SKBR3 EC50): 2.06 nM
Human plasma stability % Remaining at 24 h: 59.0%
half-life (in vitro): 28.2 h

CC[C@@]1(O)C(=O)OCc2c1cc1n(c2=O)Cc2c-1nc1cc(F)c(C)c3c1c2[C@@H](NC(=O)COCNC(=O)CNC(=O)CN)CC3 [P8, 2-amino-N-({[({[(10S,23S)-10-ethyl-18-fluoro-10-hydroxy-19-methyl-5,9-dioxo-8-oxa-4,15-diazahexacyclo[14.7.1.0^2,14.0^4,13.0^6,11.0^20,24]tetracosa-1,6(11),12,14,16,18,20(24)-heptaen-23-yl]carbamoyl}methoxy)methyl]carbamoyl}methyl)acetamide]
half-life at 1 μM ([1]; mouse, blood): 2.9 h
Mouse blood stability % Remaining at 24 h ([1]; mouse, blood, 1 μM): 46.9%
EC50 (SK-BR-3 cells; SK-BR-3, read-out: SKBR3 EC50): 30.8 nM
Human plasma stability % Remaining at 24 h: 86.0%
half-life (in vitro): 144 h

CC[C@@]1(O)C(=O)OCc2c1cc1n(c2=O)Cc2c-1nc1cc(F)c(C)c3c1c2[C@@H](NC(=O)COCN(C)C(=O)CN)CC3 [P9, 2-amino-N-[({[(10S,23S)-10-ethyl-18-fluoro-10-hydroxy-19-methyl-5,9-dioxo-8-oxa-4,15-diazahexacyclo[14.7.1.0^2,14.0^4,13.0^6,11.0^20,24]tetracosa-1,6(11),12,14,16,18,20(24)-heptaen-23-yl]carbamoyl}methoxy)methyl]-N-methylacetamide]
EC50 (SK-BR-3 cells; SK-BR-3, read-out: SKBR3 EC50): 69.5 nM

CC[C@@]1(O)C(=O)OCc2c1cc1n(c2=O)Cc2c-1nc1cc(F)c(C)c3c1c2[C@@H](NC(=O)COCNC(=O)C(C)(C)N)CC3 [P11, 2-amino-N-[({[(10S,23S)-10-ethyl-18-fluoro-10-hydroxy-19-methyl-5,9-dioxo-8-oxa-4,15-diazahexacyclo[14.7.1.0^2,14.0^4,13.0^6,11.0^20,24]tetracosa-1,6(11),12,14,16,18,20(24)-heptaen-23-yl]carbamoyl}methoxy)methyl]-2-methylpropanamide]
EC50 (SK-BR-3 cells; SK-BR-3, read-out: SKBR3 EC50): 27.7 nM

CC[C@@]1(O)C(=O)OCc2c1cc1n(c2=O)Cc2c-1nc1cc(F)c(C)c3c1c2[C@@H](NC(=O)COCNC(=O)[C@H](N)Cc1ccccc1)CC3 [P12, (2R)-2-amino-N-[({[(10S,23S)-10-ethyl-18-fluoro-10-hydroxy-19-methyl-5,9-dioxo-8-oxa-4,15-diazahexacyclo[14.7.1.0^2,14.0^4,13.0^6,11.0^20,24]tetracosa-1,6(11),12,14,16,18,20(24)-heptaen-23-yl]carbamoyl}methoxy)methyl]-3-phenylpropanamide]
EC50 (SK-BR-3 cells; SK-BR-3, read-out: SKBR3 EC50): 15.3 nM
